Measurements as given in patent US4452985A, “2-Guanyl-4-(substituted phenyl) thiazole derivatives” (American Home Products Corporation, priority 1983, dated 1984).
Counter-ions that a name gives are not always drawn. Like-named read-outs stand apart in the source and are kept apart here.

Assays:
[1] = cited from earlier work
gastric acid secretion = test: Gastric secretion in the pylorus-ligated rat (modified Shay procedure); format: in vivo; settings: intraduodenal, 4 hours after ligation, read-out: % Inhibition of acid output; for inhibition in vivo at 16 mg/kg: 16 mg/kg i.d.; for inhibition in vivo at 32 mg/kg: 32 mg/kg i.d.; for inhibition in vivo at 4 mg/kg: 4 mg/kg i.d.
Protocol: The procedure for testing gastric secretion in the rat, a modification of the procedure of Shay et al., Gastroenterology, 26, 906-13 (1954) is carried out as follows:
Male Charles River rats weighing 200-300 grams are deprived of food but not water for 24 hours prior to use. Water is, however, withheld during the experiment. The rats are weighed, anesthetized, and the pylorus ligated according to the method of Shay et al. Treatment or vehicle control is then administered interduodenally (i.d.). Rats are housed 2/cage and sacrificed with CO2 four hours after ligation. The stomachs are removed, rinsed, and contents emptied into a graduated centrifuge tube. The tubes are centrifuged for 20 minutes at 2,000 RPM and the volume of gastric juice recorded. Any samples obviously contaminated by feces, food or hemolysis are eliminated. An aliquot of each is frozen for later analysis of Na^+, K^+ and Cl^- concentration. The pH is measured and 1 ml. of gastric juice is titrated with 0.1 N NaOH to a pH of 7.0-7.4. Titratable acid output is calculated in microequivalents and the percent inhibition of acid output is calculated as follows: [formula]

H2 histamine receptors [2] = target: T1, H2 histamine receptors (Cavia porcellus, UniProt P47747); test: Guinea pig heart (spontaneously beating right atrium) test: antagonism of histamine-induced positive chronotropic response; format: cell-based; settings: 30 min preincubation, 32 °C, pH 7.4
T1 construct: from tissue; host or cells: guinea pig right atrium (spontaneously beating)
T1 sequence (P47747 whole entry): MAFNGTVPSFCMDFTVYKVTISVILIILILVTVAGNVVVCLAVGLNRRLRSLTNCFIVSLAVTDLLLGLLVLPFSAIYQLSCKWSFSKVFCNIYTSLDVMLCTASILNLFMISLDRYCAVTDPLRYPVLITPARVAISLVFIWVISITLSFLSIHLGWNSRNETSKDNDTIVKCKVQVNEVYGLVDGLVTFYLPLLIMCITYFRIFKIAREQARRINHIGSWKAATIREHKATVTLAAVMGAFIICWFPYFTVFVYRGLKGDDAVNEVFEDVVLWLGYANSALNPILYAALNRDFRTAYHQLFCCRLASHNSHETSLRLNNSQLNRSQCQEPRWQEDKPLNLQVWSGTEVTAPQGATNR
Protocol: The guinea pig heart atrium test is carried out as follows:
A guinea pig right atrium is suspended at 1 g. tension (isometric) in a thermostatically controlled (32° C.) tissue bath (10 ml.) containing oxygenated (95% O2; 5% CO2) Krebs-Haenseleit buffer (pH 7.4). The tissue is allowed to stabilize over 1 hour. Individual contractions are recorded with a force-displacement transducer through a strain gauge coupler. A control dose-response curve to histamine in the above described tissue bath is obtained after which the tissue is washed 3 times and allowed to re-equilibrate to basal rate. The test compound is added to the tissue bath at the desired final concentration. Thirty minutes after addition of the compound, a fresh histamine dose response curve is again obtained. Then the response to histamine in the presence of antagonist is compared to the histamine control response. This procedure is repeated, using fresh tissues, for each concentration of antagonist tested.

H2 histamine receptors [3] = settings: cited from earlier work
[4] = histamine dose-response, three experiments, read-out: pA2 Value (apparent dissociation constant of the H2 antagonist) (converted)
[5] = values marked *: result of only one experiment, read-out: pKB value (converted)

For `CN/C(=N/CCSCc1nc[nH]c1C)NC#N` [Cimetidine], the “tendency to cause confusional states” value ([1]; elderly patients) is given as “tendency to cause confusional states in elderly patients”, the anti-androgenic activity ([1]; patients) is given as “anti-androgenic activity” and the duration of action ([1]; patients) is given as “short duration of action”.
With `N#Cc1ccc(-c2csc(NC(=N)N)n2)cc1` [Example 1, [4-(4-Cyanophenyl)-2-Thiazolyl]Guanidine, Hydrobromide] the inhibition in vivo at 16 mg/kg (gastric acid secretion) was 50%.
`N#CCc1ccc(-c2csc(NC(=N)N)n2)cc1` [Example 2, [4-[4-(Cyanomethyl)Phenyl]-2-Thiazolyl]Guanidine, Hydrobromide] showed an inhibition in vivo at 32 mg/kg (gastric acid secretion) of 79%.
Compound `N#Cc1cccc(-c2csc(NC(=N)N)n2)c1` [Example 3, [4-(3-Cyanophenyl)-2-Thiazolyl]Guanidine, Hydrobromide, Hydrate] has an inhibition in vivo at 4 mg/kg (gastric acid secretion) of 40% and a Kb (H2 histamine receptors [2]; [4]) of 0.251 µM.
In the case of `N=C(N)Nc1nc(-c2cccc(C(=O)O)c2)cs1` [Example 4, 3-[2-[(Aminoiminomethyl)Amino]-4-Thiazolyl]Benzoic Acid, Hydrochloride], the pKB value (H2 histamine receptors [2]; values marked *: result of only one experiment) is reported as 6.1.
`N=C(N)Nc1nc(-c2cccc(C(N)=NO)c2)cs1` [Example 5, 3-[2-[(Aminoiminomethyl)Amino]-4-Thiazolyl]-N-Hydroxybenzenecarboximidamide, Dihydrochloride] gave an inhibition in vivo at 32 mg/kg (gastric acid secretion) of 68% and a Kb (H2 histamine receptors [2]; [4]) of 0.0501 µM.
`N=C(N)Nc1nc(-c2cccc(C(N)=NOC(N)=O)c2)cs1` [Example 6, N-[(Aminocarbonyl)oxy]-3-[2-[(Aminoiminomethyl)Amino]-4-Thiazolyl]Benzenecarboximidamide, Hydrochloride, Hemihydrate] showed a Kb (H2 histamine receptors [2]; [4]) of 0.0631 µM.
Work on `CC(=O)ON=C(N)c1cccc(-c2csc(NC(=N)N)n2)c1` [Example 7, N-(Acetyloxy)-3-[[2-[(Aminoiminomethyl)Amino]-4-Thiazolyl]Benzenecarboximidamide, Dihydrochloride] yielded a Kb (H2 histamine receptors [2]; [4]) of 0.0398 µM.
Work on `N=C(N)Nc1nc(-c2cccc(-c3noc(C(F)(F)F)n3)c2)cs1` [Example 8, [4-[3-[5-(Trifluoromethyl)-1,2,4-Oxadiazol-3-yl]Phenyl]-2-Thiazoyl]Guanidine, Hydrochloride] yielded an inhibition in vivo at 32 mg/kg (gastric acid secretion) of 84%.
For `N=C(N)Nc1nc(-c2cccc(C(=N)N)c2)cs1` [Example 9, 3-[2-[(Aminoiminomethyl)Amino]-4-Thiazolyl]Benzenecarboximidamide, Dihydrobromide, Hemiethanolate], the inhibition in vivo at 32 mg/kg (gastric acid secretion) was 55% and the Kb (H2 histamine receptors [2]; [4]) was 0.00501 µM.
Work on `CCOC(=N)c1cccc(-c2csc(NC(=N)N)n2)c1` [Example 10, 3-[2-[(Aminoiminomethyl)Amino]-4-Thiazolyl]Benzenecarboximidic Acid Ethyl Ester] yielded an inhibition in vivo at 4 mg/kg (gastric acid secretion) of 41%.
`N=C(N)Nc1nc(-c2cccc(C(N)=O)c2)cs1` [Example 11, 3-[2-[(Aminoiminomethyl)Amino]-4-Thiazolyl]Benzenecarboxamide, Hydrobromide] showed a Kb (H2 histamine receptors [2]; [5]) of 0.0501 µM.
`CN=C(N)c1cccc(-c2csc(NC(=N)N)n2)c1` [Example 12, 3-[2-[(Aminoiminomethyl)Amino]-4-Thiazolyl]-N-Methylbenzenecarboximidamide,Quarter Hydrate] showed an inhibition in vivo at 16 mg/kg (gastric acid secretion) of 75% and a Kb (H2 histamine receptors [2]; [5]) of 0.00631 µM.
With `N=C(N)Nc1nc(-c2cccc(C(=O)NN)c2)cs1` [Example 13, 3-[2-[(Aminoiminomethyl)Amino]-4-Thiazolyl]Benzoic Acid Hydrazide, Hydrochloride] the Kb (H2 histamine receptors [2]; [5]) was 0.0794 µM.
In the case of `CNC(=NC#N)NCCSCc1csc(N=C(N)N)n1` [tiotidine], the “H2 antagonist activity relative to cimetidine (in words)” value (H2 histamine receptors [3]) is listed as “greater activity than cimetidine”.
